# Data reported in patent US12653899B2, “Multi-targeted, tunable, sustained delivery of payloads to charged avascular tissues” (Massachusetts Institute of Technology, priority 2019, dated 2026).
# Assays:
# [1] = tested on: human ankle cartilage explants; assay: Aggrecan/sGAG biosynthesis rate (35S-sulfate incorporation) in human ankle cartilage explants; assay type: cell-based; details: for biosynthesis rate of explants compared to the untreated control: single 39.2 nM dose (equivalent to 300 ng/ml free IGF-1), FIGS. 19A-19B; for sGAG biosynthesis rate: single 500 nM, 1 μM and 2 μM doses, Day 0 to Day 3, both ankle and knee cartilage; for elevated biosynthesis rate after single dose, up to Day 7 / elevated biosynthesis rate after single dose, up to Day 15: single dose not replenished during media changes, FIG. 12 (ankle and knee)
# Method: (§1) Cartilage was harvested from both ankles of a donor (Collins Grade 0). Cartilage explants were equilibrated in culture media for 3 days after harvest. […] These were cut down to 1 mm thickness and allowed to equilibrate for a further 2.5 days before experiments were set up. A dose response experiment and an uptake experiment were set up in parallel.
# Subsets of the experiment were terminated at 3 days and 7 days from the start of the experiment. Media changes were performed every 2 to 3 days. 3 doses of free +9 GFP were included as additional controls, which tests whether high doses of the drug delivery carrier has adverse effects on aggrecan biosynthesis rate.
# For the 3-day termination experiment, chondrocyte biosynthesis rate (primarily aggrecan synthesis) was measured between days 0 and 3 of the experiment using a 35S-sulfate radiolabel. For the 7-day experiment, this measurement was done between days 5 and 7. Statistics: 1-way ANOVA with post-hoc Tukey's HSD test.
# as §1, with “the ankle” for “both ankles”, “1).” for “0).”, “2” for “3”, “A 7-day” for “A”, “was” for “and an uptake experiment were”, “up.” for “up in parallel.”
# Chondrocyte biosynthesis rate (primarily aggrecan synthesis) was measured between days 5 and 7 of the experiment using a 35S-sulfate radiolabel. Statistics: 1-way ANOVA with post-hoc Tukey's HSD test.
# Cartilage explants that were equilibrated in culture medium post-harvest were transferred to ultra-low attachment cell culture plates (Corning) for dose response experiments. All experiments were carried out in low glucose, serum free medium (same composition as equilibration medium). Previous studies studying the effects of IGF-1 on cartilage explants have used doses ranging from 10 ng/ml to 300 ng/ml. Based on these, 300 ng/ml (equivalent to 39.2 nM) of free recombinant human IGF-1 (PeproTech, Rocky Hill, NJ) was used as the positive control.
# Since each fusion protein had one IGF-1 domain, equivalent doses (39.2 nM) of these were tested. In addition to this, 500 nM, 1 μM and 2 μM doses of fusion proteins were also tested. In all cases, only a single dose of the fusion proteins was added at the start of the experiment, and media changes were carried out without fusion proteins once every 2 to 3 days thereafter. In contrast, continuous doses of free IGF-1 were used for the positive control. An untreated control group was also included in the experiments. Experiments were terminated at 3-day, 7-day and 15-day time points. Outcome measures included the biosynthesis rate of sulfated glycosaminoglycans (sGAG), explant metabolic rate, sGAG loss to the culture medium and the explant sGAG content at the end of the experiment.
# The metabolic rate of cartilage explants was measured using the Alamar Blue assay (ThermoFisher). Cartilage explants were incubated for 3 hours in a 1× solution of Alamar Blue dissolved in culture medium. At the end of the incubation period, the absorbance of the medium at 570 nm and 600 nm was measured using a microplate reader (Synergy H1 Hybrid Multi-Mode Microplate Reader, BioTek). These readings were used to calculate the percentage reduction of Alamar Blue, which is directly proportional to the explant metabolic rate. These values were first normalized by individual explant weights. Following this, the weight-normalized readings for the treatment groups were normalized by the weight-normalized mean value for the untreated controls. To measure the chondrocyte biosynthesis rate of sulfated glycosaminoglycans (sGAGs), cartilage explants were cultured in the presence of 10 μCi/mL 35S-sulfate radiolabel during the final two days of each experiment. […]
# [2] = tested on: human ankle cartilage explants treated with IL-1β; assay: Cumulative sGAG loss and final sGAG content (DMMB) in IL-1β challenge, human ankle cartilage; assay type: cell-based; details: 100 pg/ml IL-1β; for cumulative sGAG loss compared to the untreated control: 10-day time point
# Method: Preliminary dose response experiments were performed to test the effects of human IL-1β (PeproTech, Rocky Hill, NJ) on human ankle cartilage. Ankle cartilage explants from two different donors (equilibrated in culture medium post-harvest) were cultured in serum-free low glucose medium (same composition as equilibration medium) and treated with continuous IL-1β doses ranging from 10 pg/ml to 1 ng/ml for 8 days. The experiments also included groups of explants that were treated with 300 ng/ml free IGF-1 at each dose level of IL-1β. Based on the results of these experiments, 100 pg/ml IL-1β was chosen as the dose used for the fusion protein dose response experiments. In these experiments, ankle and knee cartilage explants (equilibrated in culture medium post-harvest) were treated continuously with IL-1β and received single doses of fusion proteins (ranging from 39.2 nM to 2 μM) at the start of the experiments. Media changes with IL-1β but without fusion proteins were performed once every 2 to 3 days. An untreated control group, a control with continuous IL-1β alone, and a control with IL-1β combined with continuous free IGF-1 (300 ng/ml or 39.2 nM) were included. Experiments were terminated at 7-day and 10-day timepoints, and the sGAG biosynthesis rate, metabolic rate, sGAG loss to culture medium and sGAG content of the explants were measured.
# The metabolic rate of cartilage explants was measured using the Alamar Blue assay (ThermoFisher). Cartilage explants were incubated for 3 hours in a 1× solution of Alamar Blue dissolved in culture medium. At the end of the incubation period, the absorbance of the medium at 570 nm and 600 nm was measured using a microplate reader (Synergy H1 Hybrid Multi-Mode Microplate Reader, BioTek). These readings were used to calculate the percentage reduction of Alamar Blue, which is directly proportional to the explant metabolic rate. These values were first normalized by individual explant weights. Following this, the weight-normalized readings for the treatment groups were normalized by the weight-normalized mean value for the untreated controls. To measure the chondrocyte biosynthesis rate of sulfated glycosaminoglycans (sGAGs), cartilage explants were cultured in the presence of 10 μCi/mL 35S-sulfate radiolabel during the final two days of each experiment. […] To calculate the cumulative loss of GAGs from the explants, the amount of sGAG lost to the medium and that left behind in the explants at the end of the experiment were measured using the dimethylene blue (DMMB) dye binding assay (Farndale et al., Biochim Biophys Acta. 883(2):173-177 (1986)).
Substance,"aggrecan biosynthesis rate compared to the untreated control ([1]; Experiment 3A, ankle, donor, single 500 nM dose, 3-day time point)","aggrecan biosynthesis rate compared to the untreated control ([1]; Experiment 3A, ankle, single 500 nM dose, 7-day time point)","aggrecan biosynthesis rate compared to the untreated control ([1]; Experiment 3A, ankle, single 1 μM dose, 7-day time point)","aggrecan biosynthesis rate compared to the untreated control ([1]; Experiment 3A, ankle, single 2 μM dose, 3-day time point)","aggrecan biosynthesis rate compared to the untreated control ([1]; Experiment 4, ankle, donor, single 500 nM dose, days 5-7)","aggrecan biosynthesis rate compared to the untreated control ([1]; Experiment 4, ankle, donor, single 1 μM dose, days 5-7)",biosynthesis rate of explants compared to the untreated control [1],sGAG biosynthesis rate [1],"elevated biosynthesis rate after single dose, up to Day 7 [1]","elevated biosynthesis rate after single dose, up to Day 15 [1]",cumulative sGAG loss compared to the untreated control ([2]; single 500 nM dose),"aggrecan biosynthesis rate compared to the untreated control ([1]; Experiment 3A, ankle, continuous 40 nM free IGF-1, 3-day time point)","aggrecan biosynthesis rate compared to the untreated control ([1]; Experiment 3A, ankle, continuous 40 nM free IGF-1, 7-day time point)","aggrecan biosynthesis rate compared to the untreated control ([1]; Experiment 4, ankle, continuous 40 nM free IGF-1, days 5-7)","sulfate incorporation rate compared to the untreated control ([1]; continuous 39.2 nM free IGF-1, FIG. 19A)",cumulative sGAG loss to the medium compared to the untreated control ([2]; 7-day time point (FIG. 15C)),"aggrecan biosynthesis rate compared to the untreated control ([1]; Experiment 3A, ankle, all three single doses (500 nM, 1 μM, 2 μM), 7-day time point)",cumulative sGAG loss compared to the untreated control ([2]; single 2 μM dose)
"(+9GFP)-(GGGGS)4-(IGF-1): fusion protein of +9 GFP and human IGF-1 with flexible (GGGGS)4 linker, SEQ ID NO: 7",statistically significantly higher,statistically significantly higher,statistically significantly higher,statistically significantly higher,statistically significantly higher,statistically significantly higher,did not increase,significant increase,sustained up to Day 7,could not maintain,higher cumulative sGAG loss,–,–,–,–,–,–,–
"IGF-1: free recombinant human IGF-1 (PeproTech), pro-anabolic growth factor used as the positive control",–,–,–,–,–,–,–,–,–,–,–,statistically significantly higher,statistically significantly higher,statistically significantly higher,significantly increased,higher cumulative sGAG loss,–,–
"(+9GFP)-(EAAAK)3-(IGF-1): fusion protein of +9 GFP and human IGF-1 with rigid (EAAAK)3 linker, SEQ ID NO: 8",–,–,–,–,–,–,did not increase,significant increase,sustained up to Day 7,could not maintain,–,–,–,–,–,–,statistically significantly higher,higher cumulative sGAG loss
